Data reported in US12297294B2, “Cortistatin analogues for the treatment of inflammatory and/or immune diseases” (BCN PEPTIDES, S.A., priority 2013, dated 2025).
Where a SMILES comes first, the peptide text is derived from it. Bridges are numbered along the chain shown (N, C = ends).

Key:
[1] = Serum stability in 90% human serum at 37° C., RP-HPLC; type: in vitro ADME
Method: The new compounds were incubated with 90% human serum at 37° C. Aliquots were extracted at different incubation times. Methanol was added to precipitate the proteins from the serum, it was centrifuged and the supernatant was subject to a chromatographic analysis using RP-HPLC (Gradient: 20-80% B in 30 min, B=0.07% TFA in acetonitrile). The disappearance of the initial product was analyzed using the area corresponding to the initial product and half-life time was calculated.

[2] = tested on: acute colitis induced by Dextran sulfate sodium (DSS); assay: Experimental model of ulcerative colitis (DSS-induced acute colitis); type: in vivo, C57Bl/6 male mice
Method: 7-8 week old C57Bl/6 male mice were used. They were given voluntary drinking water with 5% of Dextran sulfate sodium (DSS) from day 0 to day 7 of the study in order to induce acute colitis. Animals in the control group were supplied with normal water. […] CST was used as a reference product. The severity of the colitis was assessed daily using a scale of values from 0 to 4 indicating the clinical disease activity index considering stool consistency, the presence of bloody stools and weight loss. Mice were sacrificed on day 8 of the study and after the necropsy the extent of macroscopic damage was established in the colon using a scale from 0 to 8. […] The average weight of the sick mice's colons was 763 mg, the average weight of the colons of the sick mice treated with CST was 621 mg and that of the colons of the sick mice treated with the new cortistatin analogues was between 614-621 mg, indicating a reduction of the inflammation of the colon.

half-life [1]: 2 min
SMILES: C[C@@H](O)[C@@H]1NC(=O)[C@H](CCCCN)NC(=O)[C@H](Cc2c[nH]c3ccccc23)NC(=O)[C@H](Cc2ccccc2)NC(=O)[C@H](Cc2ccccc2)NC(=O)[C@H](CC(N)=O)NC(=O)[C@H](CCCCN)NC(=O)[C@@H](NC(=O)[C@@H]2CCCN2)CSSC[C@@H](C(=O)N[C@@H](CCCCN)C(=O)O)NC(=O)[C@H](CO)NC(=O)[C@H](CO)NC(=O)[C@H](Cc2ccccc2)NC1=O [cortistatin] (H-PCKNFFWKTFSSCK-OH; disulfide 2-13)
clinical disease activity index (0-4) ([2]; 5% DSS, 0.4 mg/Kg s.c. days 1, 2 and 3, diseased group 3.7): 1-1.5
average weight of colon ([2]; necropsy day 8, sick mice 763 mg): 621 mg
macroscopic grade of colitis (0-8) ([2]; necropsy day 8, sick mice 6.6): 0.87
